Test results as given in PubChem BioAssay AID1259407 (Chemical Carcinogenesis Research Information System (CCRIS), 2018).
Calls of active or inactive are those of the source. How the calls were made is not given here.

Test system: CCRIS mutagenicity, Ames/micronucleus/aberration tests
Assay: CCRIS mutagenicity studies
[1] = Test System: AMES SALMONELLA TYPHIMURIUM, Strain/Indicator: TA98, Metabolic Activation: NONE, Method: STANDARD PLATE
[2] = Test System: AMES SALMONELLA TYPHIMURIUM, Strain/Indicator: TA98, Metabolic Activation: RAT, LIVER, S-9, AROCLOR 1254, Method: STANDARD PLATE
[3] = Test System: AMES SALMONELLA TYPHIMURIUM, Strain/Indicator: TA100, Metabolic Activation: RAT, LIVER, S-9, AROCLOR 1254, Method: STANDARD PLATE
[4] = Test System: AMES SALMONELLA TYPHIMURIUM, Strain/Indicator: TA1537, Metabolic Activation: NONE, Method: STANDARD PLATE
[5] = Test System: AMES SALMONELLA TYPHIMURIUM, Strain/Indicator: TA100, Metabolic Activation: NONE, Method: STANDARD PLATE
[6] = Test System: AMES SALMONELLA TYPHIMURIUM, Strain/Indicator: TA1535, Metabolic Activation: RAT, LIVER, S-9, AROCLOR 1254, Method: STANDARD PLATE
[7] = Test System: MOUSE LYMPHOMA, Strain/Indicator: L5178Y (TK+/TK-), Metabolic Activation: NONE, Method: SUSPENSION/PLATE
[8] = Test System: MOUSE LYMPHOMA, Strain/Indicator: L5178Y (TK+/TK-), Metabolic Activation: RAT, LIVER, S-9, AROCLOR 1254, Method: SUSPENSION/PLATE

With O=[N+]([O-])c1ccc2c3c4c(cccc4c4ccccc4c13)[C@H](O)[C@H]2O the mutagenic call (Test System: AMES SALMONELLA TYPHIMURIUM, Strain/Indicator: TA98(1,8-DNP6), Metabolic Activation: NONE, Method: STANDARD PLATE) was “active; positive”, the mutagenic call (Test System: AMES SALMONELLA TYPHIMURIUM, Strain/Indicator: TA98(1,8-DNP6), Metabolic Activation: RAT, LIVER, S-9, AROCLOR 1254, Method: STANDARD PLATE) was “active; positive” and the mutagenic call (Test System: AMES SALMONELLA TYPHIMURIUM, Strain/Indicator: TA98(NR), Metabolic Activation: NONE, Method: STANDARD PLATE) was “active; positive”. The mutagenic call (Test System: AMES SALMONELLA TYPHIMURIUM, Strain/Indicator: TA98(NR), Metabolic Activation: RAT, LIVER, S-9, AROCLOR 1254, Method: STANDARD PLATE) was “active; positive”, the mutagenic call [1] was “active; positive” and the mutagenic call [2] was “active; positive”.
CC(C)(C)CN(N=O)C(N)=O was tested, and the mutagenic call (Test System: E. COLI, Strain/Indicator: HS30R UVRA, Metabolic Activation: NONE, Method: PREINCUBATION) was “active; positive” and the mutagenic call (Test System: E. COLI, Strain/Indicator: O16 POLA, Metabolic Activation: NONE, Method: PREINCUBATION) was “active; positive”.
With CN(CCCC(O)c1cccnc1)N=O (stereo not given) the mutagenic call (Test System: AMES SALMONELLA TYPHIMURIUM, Strain/Indicator: TA1535, Metabolic Activation: HAMSTER LIVER S-9, AROCLOR 1254 (5% OR 10%), Method: MICROSUPENSION) was “active; positive” and the mutagenic call (Test System: AMES SALMONELLA TYPHIMURIUM, Strain/Indicator: TA1535, Metabolic Activation: RAT LIVER S-9, AROCLOR 1254 (5% OR 10%), Method: MICROSUSPENSION) was “active; positive”.
In the case of Oc1cccc2c1-c1cc3cccc4ccc5ccc-2c1c5c43, the mutagenic call [3] was “active; positive”.
With CC(C)CCC[C@@H](C)[C@H]1CC[C@H]2[C@@H]3CC4([C@H]5C[C@@H](Br)CC[C@]5(C)[C@H]3CC[C@]12C)S(=O)(=O)CCS4(=O)=O the mutagenic call (Test System: AMES SALMONELLA TYPHIMURIUM, Strain/Indicator: TA97A, Metabolic Activation: NONE) was “inactive; negative”, the mutagenic call (Test System: AMES SALMONELLA TYPHIMURIUM, Strain/Indicator: TA97A, Metabolic Activation: RAT, LIVER, S-9, AROCLOR 1254) was “active; positive” and the mutagenic call (Test System: AMES SALMONELLA TYPHIMURIUM, Strain/Indicator: TA98, Metabolic Activation: NONE) was “inactive; negative”. For the same compound, the mutagenic call (Test System: AMES SALMONELLA TYPHIMURIUM, Strain/Indicator: TA100, Metabolic Activation: NONE) was “inactive; negative”, the mutagenic call (Test System: AMES SALMONELLA TYPHIMURIUM, Strain/Indicator: TA100, Metabolic Activation: RAT, LIVER, S-9, AROCLOR 1254) was “inactive; negative” and the mutagenic call (Test System: AMES SALMONELLA TYPHIMURIUM, Strain/Indicator: TA102, Metabolic Activation: NONE) was “active; positive”. The mutagenic call (Test System: AMES SALMONELLA TYPHIMURIUM, Strain/Indicator: TA102, Metabolic Activation: RAT, LIVER, S-9, AROCLOR 1254) was “active; positive”, the mutagenic call (Test System: AMES SALMONELLA TYPHIMURIUM, Strain/Indicator: TA104, Metabolic Activation: NONE) was “active; positive” and the mutagenic call (Test System: AMES SALMONELLA TYPHIMURIUM, Strain/Indicator: TA104, Metabolic Activation: RAT, LIVER, S-9, AROCLOR 1254) was “active; positive”.
For CCN(CC)CCNc1ccc2ncn3c4ccc(O)cc4c(=O)c1c23, the mutagenic call [4] was “active; positive”, the mutagenic call (Test System: AMES SALMONELLA TYPHIMURIUM, Strain/Indicator: TA1537, Metabolic Activation: S-9, Method: STANDARD PLATE) was “active; positive” and the mutagenic call (Test System: CHINESE HAMSTER V-79, Strain/Indicator: V-79 (HGPRT)/6-THIOGUANINE, Metabolic Activation: NONE) was “active; positive”.
For Nc1ccc(-c2ccc(Cl)cc2)cc1, the mutagenic call [1] was “inactive; negative”, the mutagenic call [2] was “active; positive” and the mutagenic call [5] was “inactive; negative”. For the same compound, the mutagenic call [3] was “active; positive”.
For Oc1cc2ccccc2c2ccccc12, the mutagenic call [2] was “inactive; negative” and the mutagenic call [6] was “active; positive”.
O=C1CCC(=O)N1Br was tested, and the mutagenic call (Test System: AMES SALMONELLA TYPHIMURIUM, Strain/Indicator: TA98, Metabolic Activation: HAMSTER, LIVER, S-9, AROCLOR 1254 (10%), Method: STANDARD PLATE) was “inactive; negative”, the mutagenic call [1] was “inactive; negative” and the mutagenic call (Test System: AMES SALMONELLA TYPHIMURIUM, Strain/Indicator: TA98, Metabolic Activation: RAT, LIVER, S-9, AROCLOR 1254 (10%), Method: STANDARD PLATE) was “inactive; negative”. The mutagenic call (Test System: AMES SALMONELLA TYPHIMURIUM, Strain/Indicator: TA100, Metabolic Activation: HAMSTER, LIVER, S-9, AROCLOR 1254 (10%), Method: STANDARD PLATE) was “active; positive”, the mutagenic call [5] was “inactive; negative” and the mutagenic call (Test System: AMES SALMONELLA TYPHIMURIUM, Strain/Indicator: TA100, Metabolic Activation: RAT, LIVER, S-9, AROCLOR 1254 (10%), Method: STANDARD PLATE) was “active; positive”. For the same compound, the mutagenic call [7] was “active; positive. reevaluation of results: equivocal” and the mutagenic call [8] was “inactive; negative. reevaluation of results: negative”.
With CCc1ccco1 the mutagenic call (Test System: AMES SALMONELLA TYPHIMURIUM, Strain/Indicator: TA98, Metabolic Activation: HAMSTER, LIVER, S-9, AROCLOR 1254, Method: STANDARD PLATE) was “inactive; negative”, the mutagenic call [1] was “inactive; negative” and the mutagenic call [2] was “inactive; negative”. The mutagenic call (Test System: AMES SALMONELLA TYPHIMURIUM, Strain/Indicator: TA100, Metabolic Activation: HAMSTER, LIVER, S-9, AROCLOR 1254, Method: STANDARD PLATE) was “inactive; negative”, the mutagenic call [5] was “inactive; negative” and the mutagenic call [3] was “inactive; negative”. The mutagenic call (Test System: AMES SALMONELLA TYPHIMURIUM, Strain/Indicator: TA1535, Metabolic Activation: HAMSTER, LIVER, S-9, AROCLOR 1254, Method: STANDARD PLATE) was “inactive; negative”, the mutagenic call (Test System: AMES SALMONELLA TYPHIMURIUM, Strain/Indicator: TA1535, Metabolic Activation: NONE, Method: STANDARD PLATE) was “inactive; negative” and the mutagenic call [6] was “inactive; negative”. For the same compound, the mutagenic call (Test System: AMES SALMONELLA TYPHIMURIUM, Strain/Indicator: TA1537, Metabolic Activation: HAMSTER, LIVER, S-9, AROCLOR 1254, Method: STANDARD PLATE) was “inactive; negative”, the mutagenic call [4] was “inactive; negative” and the mutagenic call (Test System: AMES SALMONELLA TYPHIMURIUM, Strain/Indicator: TA1537, Metabolic Activation: RAT, LIVER, S-9, AROCLOR 1254, Method: STANDARD PLATE) was “inactive; negative”. The mutagenic call (Test System: AMES SALMONELLA TYPHIMURIUM, Strain/Indicator: TA1538, Metabolic Activation: HAMSTER, LIVER, S-9, AROCLOR 1254, Method: STANDARD PLATE) was “inactive; negative”, the mutagenic call (Test System: AMES SALMONELLA TYPHIMURIUM, Strain/Indicator: TA1538, Metabolic Activation: NONE, Method: STANDARD PLATE) was “inactive; negative” and the mutagenic call (Test System: AMES SALMONELLA TYPHIMURIUM, Strain/Indicator: TA1538, Metabolic Activation: RAT, LIVER, S-9, AROCLOR 1254, Method: STANDARD PLATE) was “inactive; negative”. For the same compound, the mutagenic call [7] was “inactive; negative”, the mutagenic call [8] was “active; positive” and the mutagenic call (Test System: Mouse lymphoma, Strain/Indicator: L5178Y (tk+/tk-), Metabolic Activation: Rat, Liver, S-9, Aroclor 1254, Method: Suspension/plate) was “active; equivocal (previous evaluation positive)”.
